Results reported in patent publication US11746116B2, “Antibiotic resistance breakers” (KING'S COLLEGE LONDON, priority 2017, dated 2023).
Converted amounts (≈) assume the structure as drawn. “And” between values parts separate entries of the source, which are not always exact repeats. Equal values may be shown once.

Experiments:
[1] = Single dose pharmacokinetics study, intravenous route; settings: 5 mg/kg
[2] = male, CD-1 (ICR), mouse, in vivo, iv, 5 mg/kg
[3] = test system: Staphylococcus aureus ATCC29213; test: Murine thigh infection model, thigh bacterial burden; assay type: in vivo; settings: neutropenic mice; for Log10 reduction from vehicle control / Thigh bacterial burden, Group Geometric mean / Thigh bacterial burden, Log10 Group Geometric mean: 8 h, 14 h post-infection, 18 h post infection; for decrease of thigh bacterial burden compared to vehicle group: 8 h and 14 h post infection, burden 18 h post infection
[4] = in vivo; settings: male, CD-1 (ICR), mouse, iv, 5 mg/kg
[5] = thigh infection study, treated groups, relative to day of infection
[6] = target: Safetyscreen44 off target panel (Homo sapiens, UniProt Q12809); test: Safetyscreen44, potential off target toxicity (Table 27)
Chain of Safetyscreen44 off target panel (Q12809 whole entry): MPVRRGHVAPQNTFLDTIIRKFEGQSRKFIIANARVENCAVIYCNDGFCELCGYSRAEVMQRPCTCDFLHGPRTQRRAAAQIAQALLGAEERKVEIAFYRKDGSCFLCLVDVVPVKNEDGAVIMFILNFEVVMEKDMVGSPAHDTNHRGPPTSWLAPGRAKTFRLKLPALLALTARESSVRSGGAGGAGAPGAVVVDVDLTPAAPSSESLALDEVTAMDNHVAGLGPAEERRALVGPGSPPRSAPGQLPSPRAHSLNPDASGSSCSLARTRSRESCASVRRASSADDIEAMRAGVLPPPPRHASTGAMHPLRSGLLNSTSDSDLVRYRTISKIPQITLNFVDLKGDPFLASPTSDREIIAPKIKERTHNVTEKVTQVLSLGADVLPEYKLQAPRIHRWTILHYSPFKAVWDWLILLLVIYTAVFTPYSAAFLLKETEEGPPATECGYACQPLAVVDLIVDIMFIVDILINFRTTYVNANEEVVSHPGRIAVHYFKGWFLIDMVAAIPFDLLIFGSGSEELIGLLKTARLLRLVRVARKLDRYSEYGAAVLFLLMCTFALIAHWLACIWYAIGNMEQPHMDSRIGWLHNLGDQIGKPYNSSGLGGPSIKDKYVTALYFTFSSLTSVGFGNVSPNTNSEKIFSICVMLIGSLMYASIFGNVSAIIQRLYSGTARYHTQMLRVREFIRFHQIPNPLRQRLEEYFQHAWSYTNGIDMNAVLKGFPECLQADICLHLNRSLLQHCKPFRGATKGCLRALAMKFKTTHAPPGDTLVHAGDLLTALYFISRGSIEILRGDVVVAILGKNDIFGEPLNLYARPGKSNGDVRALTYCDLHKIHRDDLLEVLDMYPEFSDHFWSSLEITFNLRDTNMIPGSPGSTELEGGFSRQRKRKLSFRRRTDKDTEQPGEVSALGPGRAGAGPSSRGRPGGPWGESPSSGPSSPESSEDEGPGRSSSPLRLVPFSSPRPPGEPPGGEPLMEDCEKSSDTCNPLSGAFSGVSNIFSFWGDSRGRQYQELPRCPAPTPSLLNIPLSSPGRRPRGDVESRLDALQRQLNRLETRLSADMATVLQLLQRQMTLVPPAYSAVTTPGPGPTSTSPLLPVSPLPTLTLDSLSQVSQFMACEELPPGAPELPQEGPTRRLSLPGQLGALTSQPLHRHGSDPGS

[7] = target: CYP2C9 (Homo sapiens, UniProt P11712); test: in vitro; settings: microsomes, % inhibition, CYP2C9 inhibition (HLM, diclofenac substrate)
Chain of CYP2C9 (P11712 whole entry): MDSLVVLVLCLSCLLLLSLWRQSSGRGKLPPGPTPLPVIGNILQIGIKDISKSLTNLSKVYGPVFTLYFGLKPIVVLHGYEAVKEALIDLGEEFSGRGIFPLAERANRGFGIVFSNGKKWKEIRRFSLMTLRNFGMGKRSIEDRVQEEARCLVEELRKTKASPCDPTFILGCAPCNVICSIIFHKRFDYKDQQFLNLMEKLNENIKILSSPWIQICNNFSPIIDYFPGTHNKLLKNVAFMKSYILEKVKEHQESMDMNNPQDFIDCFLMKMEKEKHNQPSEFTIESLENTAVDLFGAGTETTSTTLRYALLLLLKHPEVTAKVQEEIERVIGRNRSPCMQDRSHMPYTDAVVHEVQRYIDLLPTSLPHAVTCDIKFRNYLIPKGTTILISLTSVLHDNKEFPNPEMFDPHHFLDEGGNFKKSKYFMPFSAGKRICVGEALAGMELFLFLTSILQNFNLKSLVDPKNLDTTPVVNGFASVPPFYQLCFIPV

[8] = target: CYP2C19 (Homo sapiens, UniProt P33261); test: in vitro; settings: microsomes, % inhibition, CYP2C19 inhibition (HLM, omeprazole substrate)
Chain of CYP2C19 (P33261 whole entry): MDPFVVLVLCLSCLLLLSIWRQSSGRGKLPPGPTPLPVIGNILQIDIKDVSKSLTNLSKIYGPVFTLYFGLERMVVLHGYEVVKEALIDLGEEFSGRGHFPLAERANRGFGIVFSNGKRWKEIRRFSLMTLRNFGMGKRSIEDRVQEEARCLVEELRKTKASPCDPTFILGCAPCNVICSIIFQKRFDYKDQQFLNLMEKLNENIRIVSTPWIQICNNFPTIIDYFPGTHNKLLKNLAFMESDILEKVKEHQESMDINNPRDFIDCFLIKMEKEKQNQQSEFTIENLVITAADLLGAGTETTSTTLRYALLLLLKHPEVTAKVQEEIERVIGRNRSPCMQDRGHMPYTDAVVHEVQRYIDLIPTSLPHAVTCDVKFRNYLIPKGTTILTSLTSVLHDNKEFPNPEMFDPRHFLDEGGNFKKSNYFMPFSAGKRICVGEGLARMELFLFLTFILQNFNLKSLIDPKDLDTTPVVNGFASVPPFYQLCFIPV

[9] = target: CYP2B6 (Homo sapiens, UniProt P20813); test: in vitro; settings: microsomes, % inhibition, CYP2B6 inhibition (HLM, bupropion substrate)
Chain of CYP2B6 (P20813 whole entry): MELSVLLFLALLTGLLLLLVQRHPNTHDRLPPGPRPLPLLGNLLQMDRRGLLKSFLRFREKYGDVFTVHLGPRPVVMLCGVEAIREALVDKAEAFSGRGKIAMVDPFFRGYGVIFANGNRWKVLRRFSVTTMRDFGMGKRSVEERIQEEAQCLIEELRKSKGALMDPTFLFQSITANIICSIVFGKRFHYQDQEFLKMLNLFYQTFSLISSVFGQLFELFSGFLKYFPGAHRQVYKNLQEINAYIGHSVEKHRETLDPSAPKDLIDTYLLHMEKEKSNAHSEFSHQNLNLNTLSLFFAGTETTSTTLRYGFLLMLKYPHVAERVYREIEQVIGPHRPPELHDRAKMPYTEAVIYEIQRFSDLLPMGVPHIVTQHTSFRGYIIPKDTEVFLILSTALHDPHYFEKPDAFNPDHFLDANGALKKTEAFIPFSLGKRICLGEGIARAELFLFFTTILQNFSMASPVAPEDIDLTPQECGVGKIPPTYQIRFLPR

[10] = target: CYP2C8 (Homo sapiens, UniProt P10632); test: in vitro; settings: microsomes, % inhibition, CYP2C8 inhibition (HLM, amodiaquine substrate)
Chain of CYP2C8 (P10632 whole entry): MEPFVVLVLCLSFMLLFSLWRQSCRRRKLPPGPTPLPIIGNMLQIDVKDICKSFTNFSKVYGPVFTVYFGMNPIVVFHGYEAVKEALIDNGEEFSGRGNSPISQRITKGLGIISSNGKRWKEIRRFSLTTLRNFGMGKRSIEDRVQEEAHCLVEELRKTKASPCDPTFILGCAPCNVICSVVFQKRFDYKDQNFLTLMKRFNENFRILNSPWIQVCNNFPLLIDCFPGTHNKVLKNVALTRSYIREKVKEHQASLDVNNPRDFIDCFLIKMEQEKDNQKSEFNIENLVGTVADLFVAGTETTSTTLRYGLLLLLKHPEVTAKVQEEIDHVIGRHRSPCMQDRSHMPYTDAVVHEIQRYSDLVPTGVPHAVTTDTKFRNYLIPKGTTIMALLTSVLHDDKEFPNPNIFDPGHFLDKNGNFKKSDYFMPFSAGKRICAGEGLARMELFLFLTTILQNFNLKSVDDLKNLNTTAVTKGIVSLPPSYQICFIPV

[11] = test system: CYP3A; test: in vitro; settings: human, microsomes, % inhibition
[12] = test system: CYP1A (printed CYPiA); test: in vitro; settings: human, microsomes, % inhibition, CYPiA inhibition (HLM, phenacetin substrate)
[13] = target: CYP2D6 (Homo sapiens, UniProt P10635); test: in vitro; settings: microsomes, % inhibition, CYP2D6 inhibition (HLM, dextromethorphan substrate)
Chain of CYP2D6 (P10635 whole entry): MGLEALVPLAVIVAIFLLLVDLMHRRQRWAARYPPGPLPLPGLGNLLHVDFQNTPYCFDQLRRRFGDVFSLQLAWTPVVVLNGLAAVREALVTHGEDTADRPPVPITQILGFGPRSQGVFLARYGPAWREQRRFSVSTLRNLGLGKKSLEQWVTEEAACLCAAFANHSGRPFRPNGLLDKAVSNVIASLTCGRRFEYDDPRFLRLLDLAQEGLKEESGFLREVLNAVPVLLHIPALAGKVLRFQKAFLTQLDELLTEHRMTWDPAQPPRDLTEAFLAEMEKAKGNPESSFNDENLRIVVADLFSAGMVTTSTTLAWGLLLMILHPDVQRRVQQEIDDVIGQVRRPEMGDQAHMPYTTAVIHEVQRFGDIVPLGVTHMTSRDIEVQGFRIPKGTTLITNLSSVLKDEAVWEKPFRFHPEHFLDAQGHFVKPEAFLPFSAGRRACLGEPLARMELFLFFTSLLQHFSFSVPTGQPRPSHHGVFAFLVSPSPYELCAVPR

[14] = test system: EC12923; test: MIC, microdilution broth method; assay type: cell-based
[15] = test system: multidrug resistant strains; test: Reserpine growth assay in several multidrug resistant strains (FIG. 27); assay type: cell-based; settings: compared to ML-83-009 or levofloxacin
Description: Reserpine was added at a final concentration of 10 μg/mL (made up at 40 μg/mL in TSB, 50 μL per well). The bacteria were added at an OD of 0.01 in TSB (100 μL/well). The plate was a normal clear plate as used for MICs. OD was read every 30 minutes for 9 hours (the literature states 7 hours, but this is strain-dependent).

[16] = test system: EMRSA15; test: MIC, microdilution broth method; assay type: cell-based, Staphylococcus aureus
[17] = test system: VSE775; test: MIC, microdilution broth method; assay type: cell-based, Enterococcus faecalis; set-up: MIC, VSE775: unit not given beside the values
[18] = test system: AYE; test: MIC, microdilution broth method; assay type: cell-based, Acinetobacter baumannii
[19] = test system: VRE12201; test: MIC, microdilution broth method; assay type: cell-based, Enterococcus faecalis
[20] = test system: EMRSA16; test: MIC, microdilution broth method; assay type: cell-based, Staphylococcus aureus; settings: for MIC, EMRSA16: in µg/mL
[21] = test system: MSSA9144; test: MIC, microdilution broth method; assay type: cell-based, Staphylococcus aureus
[22] = test system: Ab17978; test: MIC, microdilution broth method; assay type: cell-based
[23] = test system: M6; test: MIC, microdilution broth method; assay type: cell-based
[24] = Male CD1 mouse, blood, Composite Mean
[25] = male, CD-1 (ICR), mouse, in vivo
[26] = ESKAPE panel, Gram-negative, in µg/mL
[27] = ESKAPE panel, Gram-positive, in µg/mL

Q: With C[C@H]1COc2c(N3CC[C@@H](Nc4ncccn4)C3)c(F)cc3c(=O)c(C(=O)O)cn1c23 [KSN-82-L22] as the molecule, how does the “Blood CL” value [1, 24] read?
A: The value was 12.5 mL/min/kg.

Q: What about the Clast [1, 24] of the same molecule?
A: The Clast was 286 ng/mL.

Q: And the AUC [1, 25]?
A: Its AUC is 6420 ng·h/mL and 15.1 µM·h.

Q: What about the AUC(0-inf) [1, 25] of the same molecule?
A: Its AUC(0-inf) is 15.7 µM·h.

Q: What about the Cmax [1, 25] of the same molecule?
A: The Cmax was 9390 ng/mL and 22.1 µM.

Q: And the MRT [1, 25]?
A: Its MRT is 1.8 h.

Q: And the half-life [1, 25]?
A: Its half-life is 36 min.

Q: And the AUGinf [2]?
A: The AUGinf was 6691 ng·h/mL.

Q: And the “Liver Blood Flow” value [2]?
A: Its value is 10.4%.

Q: And the “Log10 reduction from vehicle control” value ([3]; 20 mg/kg PO at 2 h)?
A: The value was 5.00 log10 CFU/g.

Q: What about the “Thigh bacterial burden, Group Geometric mean” value ([3]; 20 mg/kg PO at 2 h) of the same molecule?
A: Its value is 2.01 × 10^3 cfu/g.

Q: And the “Thigh bacterial burden, Log10 Group Geometric mean” value ([3]; 20 mg/kg PO at 2 h)?
A: Its value is 3.30 log10 cfu/g.

Q: And the “Log10 reduction from vehicle control” value ([3]; 50 mg/kg PO at 2 h)?
A: The value was 5.16 log10 CFU/g.

Q: And the “Thigh bacterial burden, Group Geometric mean” value ([3]; 50 mg/kg PO at 2 h)?
A: Its value is 1.37 × 10^3 cfu/g.

Q: What about the “Thigh bacterial burden, Log10 Group Geometric mean” value ([3]; 50 mg/kg PO at 2 h) of the same molecule?
A: Its value is 3.14 log10 cfu/g.

Q: And the “decrease of thigh bacterial burden compared to vehicle group” value ([3]; 20 mg/kg/dose oral at 2 h, 20 mg/kg)?
A: Its value is 5 log10 CFU/g and > 5 log10 CFU/g.

Q: And the “decrease of thigh bacterial burden compared to vehicle group” value ([3]; 50 mg/kg/dose oral at 2 h, 50 mg/kg)?
A: Its value is 5.16 log10 CFU/g and > 5 log10 CFU/g.

Q: What about the Vd [4] of the same molecule?
A: The Vd was 1 to 4 L/kg.

Q: What about the “body weights following infection” value [5] of the same molecule?
A: Its value is “slightly increased”.

Q: What about the “% inhibition, Potassium Channel hERG (human)-[3H] Dofetilide” value [6] of the same molecule?
A: The value was −0.2461%.

Q: What about the inhibition at 10 µM [7] of the same molecule?
A: The inhibition at 10 µM was 12.8%.

Q: What about the inhibition at 10 µM [8] of the same molecule?
A: Its inhibition at 10 µM is 0.632%.

Q: What about the inhibition at 10 µM [9] of the same molecule?
A: Its inhibition at 10 µM is -1.32%.

Q: And the inhibition at 10 µM [10]?
A: The inhibition at 10 µM was 3.05%.

Q: And the inhibition at 10 µM ([11]; CYP3A inhibition (HLM, midazolam substrate))?
A: Its inhibition at 10 µM is 25.2%.

Q: And the inhibition at 10 µM ([11]; CYP3A inhibition (HLM, testosterone substrate))?
A: The inhibition at 10 µM was 6.52%.

Q: And the inhibition at 10 µM [12]?
A: The inhibition at 10 µM was 9.56%.

Q: What about the inhibition at 10 µM [13] of the same molecule?
A: The inhibition at 10 µM was 0%.

Q: With Cc1cc(C)nc(N[C@@H]2CCN(c3c(F)cc4c(=O)c(C(=O)O)cn5c4c3OC[C@@H]5C)C2)n1 [KSN-BL7, (S)-10-((R)-3-((4,6-dimethylpyrimidin-2-yl)amino)pyrrolidin-1-yl)-9-fluoro-3-methyl-7-oxo-2,3-dihydro-7H-[1,4]oxazino[2,3,4-ij]quinoline-6-carboxylic acid] as the molecule, how does the “MIC, EC12923” value [14, 26] read?
A: The value was 1.

Q: And the MIC ([14]; Escherichia coli)?
A: Its MIC is 1 µg/mL (≈ 2.21 µM).

Q: And the “efflux from the bacteria (reserpine growth assay)” value [15]?
A: Its value is “reduced efflux”.

Q: What about the “MIC, EMRSA15” value ([16]; EMRSA15 (Table 16, role of the terminal pyrimidine ring), in µg/mL) of the same molecule?
A: The value was 0.125-0.25.

Q: And the “MIC, EMRSA15” value ([16]; ESKAPE panel, Gram-positive)?
A: The value was 0.125-.

Q: What about the MIC ([16]; Staphylococcus aureus) of the same molecule?
A: The MIC was 0.125 µg/mL (≈ 0.276 µM).

Q: And the “MIC, VSE775” value ([17]; ESKAPE panel, Gram-positive)?
A: The value was 0.0625.

Q: And the MIC ([17]; Enterococcus faecalis)?
A: Its MIC is 0.06 µg/mL (≈ 0.132 µM).

Q: What about the MIC ([18]; Acinetobacter baumannii) of the same molecule?
A: The MIC was 8 µg/mL (≈ 17.6 µM).

Q: And the “MIC, AYE” value [18, 26]?
A: The value was 8.

Q: And the “MIC, VRE12201” value [19, 27]?
A: The value was 0.0313.

Q: And the MIC ([19]; Enterococcus faecalis)?
A: Its MIC is 0.03 µg/mL (≈ 0.0662 µM).

Q: What about the “MIC, EMRSA16” value ([20]; EMRSA16 (Table 16, role of the terminal pyrimidine ring)) of the same molecule?
A: The value was 0.25-0.5.

Q: And the “MIC, EMRSA16” value ([20]; ESKAPE panel, Gram-positive)?
A: Its value is 0.25.

Q: What about the MIC ([20]; Staphylococcus aureus) of the same molecule?
A: The MIC was 0.25 µg/mL (≈ 0.551 µM).

Q: What about the “MIC, MSSA9144” value [21, 27] of the same molecule?
A: The value was ≤0.0039.

Q: What about the MIC ([21]; Staphylococcus aureus) of the same molecule?
A: The MIC was ≤ 3.9 ng/mL.

Q: And the MIC ([22]; Acinetobacter baumannii)?
A: The MIC was ≤ 0.125 µg/mL.

Q: And the “MIC, Ab17978” value [22, 26]?
A: Its value is ≤0.125.

Q: What about the “MIC, M6” value [23, 26] of the same molecule?
A: Its value is 2.

Q: And the MIC ([23]; Klebsiella pneumoniae)?
A: Its MIC is 2 µg/mL (≈ 4.41 µM).
